Source: BindingDB's records for doi:10.1021/jm970265x (Glaxo Wellcome Research and Development, 1997)
“And” between values parts separate entries of the source, which are not always exact repeats. Equal values may be shown once.

The compounds below were run against T1, Gastrin/cholecystokinin type B receptor (Homo sapiens, UniProt P32239).
T1 sequence (P32239 whole entry): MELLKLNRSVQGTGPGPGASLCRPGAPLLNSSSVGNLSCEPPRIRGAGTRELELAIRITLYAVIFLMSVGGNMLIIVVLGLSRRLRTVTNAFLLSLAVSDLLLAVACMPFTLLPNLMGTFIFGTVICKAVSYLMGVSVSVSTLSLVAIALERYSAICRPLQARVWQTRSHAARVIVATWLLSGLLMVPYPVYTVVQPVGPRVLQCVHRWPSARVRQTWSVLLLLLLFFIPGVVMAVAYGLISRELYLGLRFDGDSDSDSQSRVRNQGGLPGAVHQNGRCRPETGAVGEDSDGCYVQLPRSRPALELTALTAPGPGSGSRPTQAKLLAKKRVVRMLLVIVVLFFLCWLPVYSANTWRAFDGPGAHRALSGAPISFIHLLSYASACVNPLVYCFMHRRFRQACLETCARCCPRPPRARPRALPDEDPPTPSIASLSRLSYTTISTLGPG
For `CC(C)N(C(=O)CN1C(=O)C(Cc2n[nH]c3ccccc23)C(=O)N(c2ccccc2)c2ccccc21)c1ccc(C(F)(F)F)cc1` (stereo not drawn) [CCK-A Agonist 39], the Ki was 1660 nM.
In the case of `COc1ccc(N(C(=O)CN2C(=O)C(Cc3n[nH]c4c(F)cccc34)C(=O)N(c3ccccc3)c3ccccc32)C(C)C)cc1` (stereo not drawn) [CCK-A Agonist 34], the Ki is reported as 1050 nM.
In the case of `CC(C)N(C(=O)CN1C(=O)C(Cc2n[nH]c3ccccc23)C(=O)N(c2ccccc2)c2ccccc21)c1ccc(F)cc1` (stereo not drawn) [CCK-A Agonist 38], the Ki is reported as 138 nM and 479 nM.
For `COc1cccc(N(C(=O)CN2C(=O)C(Cc3n[nH]c4ccccc34)C(=O)N(c3ccccc3)c3ccccc32)C(C)C)c1` (stereo not drawn) [CCK-A Agonist 40], the Ki was 479 nM and 191 nM.
Work on `CC(C)(C)N(C(=O)CN1C(=O)C(Cc2n[nH]c3ccccc23)C(=O)N(c2ccccc2)c2ccccc21)c1ccccc1` (stereo not drawn) [CCK-A Agonist 45] yielded a Ki of 891 nM.
With `CC(C)N(C(=O)CN1C(=O)C(Cc2n[nH]c3ccccc23)C(=O)N(c2ccccc2)c2ccccc21)c1ccccc1` (stereo not drawn) [CCK-A Agonist 37] the Ki was 87.1 nM and 178 nM.
Work on `COc1ccccc1N(C(=O)CN1C(=O)C(Cc2n[nH]c3ccccc23)C(=O)N(c2ccccc2)c2ccccc21)C(C)C` (stereo not drawn) [CCK-A Agonist 41] yielded a Ki of 129 nM.
Work on `CC(C)N(C(=O)CN1C(=O)C(Cc2n[nH]c3ccccc23)C(=O)N(c2ccccc2)c2ccccc21)c1ccc2c(c1)OCO2` (stereo not drawn) [CCK-A Agonist 42] yielded a Ki of 724 nM.
